# Measurements published in patent US20210177828A1, “TAM FAMILY KINASE /AND CSF1R KINASE INHIBITOR AND USE THEREOF” (Nanjing Transthera Biosciences Co., Ltd., priority 2018, published 2021).
# Columns and labels:
# Format in all cases: biochemical
# [1] = target: T1, Mer (h) (Homo sapiens, UniProt Q12866); assay: Enzymatic activity assay, Mer (h), [γ-33P]-ATP filter assay; conditions: 10 μM ATP, 40 min room temperature; read-out: Inhibitory activity IC50 Mer(h)
# T1 sequence (Q12866 21-999): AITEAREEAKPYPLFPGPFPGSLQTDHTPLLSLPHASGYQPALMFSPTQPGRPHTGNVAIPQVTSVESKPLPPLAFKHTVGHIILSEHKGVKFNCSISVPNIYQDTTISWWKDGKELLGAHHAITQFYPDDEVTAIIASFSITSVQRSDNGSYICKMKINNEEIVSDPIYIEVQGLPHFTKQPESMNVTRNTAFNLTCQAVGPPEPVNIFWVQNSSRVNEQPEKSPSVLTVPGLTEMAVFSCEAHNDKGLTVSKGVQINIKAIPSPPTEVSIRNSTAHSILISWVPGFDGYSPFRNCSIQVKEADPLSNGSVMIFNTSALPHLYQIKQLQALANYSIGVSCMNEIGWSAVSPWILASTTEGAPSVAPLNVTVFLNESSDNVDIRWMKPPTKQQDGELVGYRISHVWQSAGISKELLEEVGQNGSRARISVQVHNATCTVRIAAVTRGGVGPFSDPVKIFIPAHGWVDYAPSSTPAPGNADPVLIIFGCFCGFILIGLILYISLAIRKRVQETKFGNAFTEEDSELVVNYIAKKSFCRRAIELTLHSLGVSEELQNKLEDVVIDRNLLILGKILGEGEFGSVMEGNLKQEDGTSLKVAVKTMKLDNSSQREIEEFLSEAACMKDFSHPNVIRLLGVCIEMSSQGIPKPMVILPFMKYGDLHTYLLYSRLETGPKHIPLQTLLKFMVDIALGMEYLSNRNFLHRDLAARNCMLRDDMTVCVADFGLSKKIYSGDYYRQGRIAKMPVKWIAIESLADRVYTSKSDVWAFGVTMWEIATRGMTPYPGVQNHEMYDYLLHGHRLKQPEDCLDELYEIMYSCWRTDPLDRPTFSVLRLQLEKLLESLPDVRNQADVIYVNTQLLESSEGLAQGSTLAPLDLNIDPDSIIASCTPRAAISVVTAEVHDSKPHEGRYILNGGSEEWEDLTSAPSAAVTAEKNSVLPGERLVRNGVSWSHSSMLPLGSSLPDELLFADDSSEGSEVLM
# Method: (§1) Compounds were each dissolved in 100% DMSO to prepare stock solutions with a maximum concentration of 500 μM.
# (§2) Compound working solutions (50×) were prepared by diluting a compound stock solution to a final concentration of 500, 150, 50, 15, 5, 1.5, 0.5, 0.15 and 0.05 μM.
# An enzyme solution with a final concentration of 3.1 nM was prepared by dissolving Mer (h) enzyme in a mixture of 8 mM MOPS (pH 7.0), 0.2 mM EDTA, 30 mM NaCl and 250 μM GGMEDIYFEFMGGKKK. A Mg/ATP mixture of 10 mM magnesium acetate and 10 μM [γ-^33P]-ATP was used to activate the enzymatic reaction.
# (§3) A compound working solution was added to a 384-well plate, with final concentrations of 10,000, 3,000, 1,000, 300, 100, 30, 10, 3 and 1 nM, and then different enzymatic reaction solutions prepared according to the above conditions were added. The reaction solutions were incubated at room temperature for 40 min, and then 0.5% phosphoric acid solutions were added to terminate the reaction. 10 μL of the reaction solution was added dropwise to P30 filter paper, washed 4 times with a 0.425% phosphoric acid solution and once with methanol, and then placed in a scintillation counter for detection. Gray analysis was performed on the results with Image J software, and IC50 values were calculated with GraphPad 5.0 software.
# [2] = target: T2, Axl (h) (Homo sapiens, UniProt P30530); assay: Enzymatic activity assay, Axl (h), [γ-33P]-ATP filter assay; conditions: 10 μM ATP, 40 min room temperature; read-out: Inhibitory activity IC50 Axl(h)
# T2 sequence (P30530 26-894): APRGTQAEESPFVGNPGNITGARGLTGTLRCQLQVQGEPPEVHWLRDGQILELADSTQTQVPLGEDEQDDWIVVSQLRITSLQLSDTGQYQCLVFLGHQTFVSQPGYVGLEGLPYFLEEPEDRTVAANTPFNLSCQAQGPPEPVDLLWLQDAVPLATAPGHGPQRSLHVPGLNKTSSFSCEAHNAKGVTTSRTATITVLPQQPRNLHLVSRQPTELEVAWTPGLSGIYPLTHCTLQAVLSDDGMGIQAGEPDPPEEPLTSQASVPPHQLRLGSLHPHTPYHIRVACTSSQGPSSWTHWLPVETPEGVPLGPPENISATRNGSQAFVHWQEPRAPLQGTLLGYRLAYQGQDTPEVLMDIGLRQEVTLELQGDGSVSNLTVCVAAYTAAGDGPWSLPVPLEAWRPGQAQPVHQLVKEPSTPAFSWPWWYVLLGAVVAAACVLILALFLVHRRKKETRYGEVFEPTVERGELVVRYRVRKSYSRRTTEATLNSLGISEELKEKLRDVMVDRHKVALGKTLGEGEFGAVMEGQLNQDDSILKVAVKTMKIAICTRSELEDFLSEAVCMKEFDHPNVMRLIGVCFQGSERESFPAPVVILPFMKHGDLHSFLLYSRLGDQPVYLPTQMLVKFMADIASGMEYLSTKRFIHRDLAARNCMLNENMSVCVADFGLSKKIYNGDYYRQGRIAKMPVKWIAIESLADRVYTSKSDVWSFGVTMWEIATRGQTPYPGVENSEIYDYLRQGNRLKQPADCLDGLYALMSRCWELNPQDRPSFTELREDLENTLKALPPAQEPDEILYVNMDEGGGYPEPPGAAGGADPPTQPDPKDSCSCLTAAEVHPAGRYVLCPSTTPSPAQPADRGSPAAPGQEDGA
# Method: as §1, §2
# An enzyme solution with a final concentration of 1.7 nM was prepared by dissolving Axl (h) enzyme in a mixture of 8 mM MOPS (pH 7.0), 0.2 mM EDTA and 250 μM KKSRGDYMTMQIG. A Mg/ATP mixture of 10 mM magnesium acetate and 10 μM [γ-^33P]-ATP was used to activate the enzymatic reaction.
# as §3
# [3] = target: T3, Tyro-3 (h) (Homo sapiens, UniProt Q06418); assay: Enzymatic activity assay, Tyro-3 (h), [γ-33P]-ATP filter assay; conditions: 10 μM ATP, 40 min room temperature; read-out: Inhibitory activity IC50 Tyro-3(h)
# T3 sequence (Q06418 41-890): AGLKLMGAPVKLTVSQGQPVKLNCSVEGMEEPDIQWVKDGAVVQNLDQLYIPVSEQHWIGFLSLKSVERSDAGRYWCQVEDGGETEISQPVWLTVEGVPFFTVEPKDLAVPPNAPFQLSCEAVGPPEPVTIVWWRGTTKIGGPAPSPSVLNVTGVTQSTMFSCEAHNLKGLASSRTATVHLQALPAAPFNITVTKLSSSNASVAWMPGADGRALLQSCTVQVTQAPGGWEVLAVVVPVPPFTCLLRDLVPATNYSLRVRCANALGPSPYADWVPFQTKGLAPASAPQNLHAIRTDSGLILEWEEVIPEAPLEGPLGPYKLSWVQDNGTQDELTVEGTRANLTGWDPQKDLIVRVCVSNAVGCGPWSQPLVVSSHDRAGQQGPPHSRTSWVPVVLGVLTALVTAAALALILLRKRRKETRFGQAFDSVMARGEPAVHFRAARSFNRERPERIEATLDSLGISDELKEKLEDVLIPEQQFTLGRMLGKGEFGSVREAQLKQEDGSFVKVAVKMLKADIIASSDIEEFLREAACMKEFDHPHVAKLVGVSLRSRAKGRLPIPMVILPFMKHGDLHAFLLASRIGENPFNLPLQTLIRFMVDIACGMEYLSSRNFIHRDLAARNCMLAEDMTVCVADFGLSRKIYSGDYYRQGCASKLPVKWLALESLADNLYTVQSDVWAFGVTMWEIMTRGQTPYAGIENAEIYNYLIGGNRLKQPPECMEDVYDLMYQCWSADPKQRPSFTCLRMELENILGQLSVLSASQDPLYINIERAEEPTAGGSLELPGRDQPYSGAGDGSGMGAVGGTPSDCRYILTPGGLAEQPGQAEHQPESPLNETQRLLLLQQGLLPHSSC
# Method: as §1, §2
# An enzyme solution with a final concentration of 38 nM was prepared by dissolving Tyro3 (h) enzyme in a mixture of 8 mM MOPS (pH 7.0), 0.2 mM EDTA, 1 mM MnCl2 and 250 μM KVEKIGEGTYGVVYK. A Mg/ATP mixture of 10 mM magnesium acetate and 10 μM [γ-^33P]-ATP was used to activate the enzymatic reaction.
# as §3
IC50 [1] [nM],IC50 [2] [nM],IC50 [3] [nM],SMILES
8,9,33,"COc1cc2nccc(Oc3cnc(NC(=O)c4nn(CC5CCSCC5)cc(-c5ccc(C)cc5)c4=O)nc3)c2cc1OC [Compound 23, N-(5-((6,7-dimethoxyquinolin-4-yl)oxy)pyrimidin-2-yl)-4-oxo-1-((tetrahydro-2H-thiopyran-4-yl)methyl)-5-(p-tolyl)-1,4-dihydropyridazin-3-carboxamide]"
5,16,103,"COc1cc2nccc(Oc3cnc(NC(=O)c4cn(CC5CCSCC5)cc(-c5ccc(C)cc5)c4=O)nc3)c2cc1OC [Compound 22, N-(5-((6,7-dimethoxyquinolin-4-yl)oxy)pyrimidin-2-yl)-4-oxo-1-((tetrahydro-2H-thiopyran-4-yl)methyl)-5-(p-tolyl)-1,4-dihydropyridin-3-carboxamide]"
1,19,29,"COc1cc2nccc(Oc3ccc(NC(=O)c4nn(CC5CCSCC5)cc(-c5ccc(C)cc5)c4=O)nc3)c2cc1OC [Compound 21, N-(5-((6,7-dimethoxyquinolin-4-yl)oxy)pyridin-2-yl)-4-oxo-1-((tetrahydro-2H-thiopyran-4-yl)methyl)-5-(p-tolyl)-1,4-dihydropyridazin-3-carboxamide]"

# The remaining lines, values behind:
SMILES,IC50 [1] [nM],IC50 [2] [nM],IC50 [3] [nM]
"COc1cc2nccc(O[C@H]3CC[C@@H](NC(=O)c4cn(CC5CCOCC5)cc(-c5ccc(C)cc5)c4=O)CC3)c2cc1OC [Compound 38, N-((cis)-4-((6,7-dimethoxyquinolin-4-yl)oxy)cyclohexyl)-4-oxo-1-((tetrahydro-2H-pyran-4-yl)methyl)-5-(p-tolyl)-1,4-dihydropyridin-3-carboxamide]",,22,
"COc1ccc(-c2cnc(N)c(-c3ccc(NC(=O)c4cc(-c5ccc(C)cc5)cn(CC5CCOCC5)c4=O)cc3)c2)cc1OC [Compound 35, N-(4-(2-amino-5-(3,4-dimethoxyphenyl)pyridin-3-yl)phenyl)-2-oxo-1-((tetrahydro-2H-pyran-4-yl)methyl)-5-(p-tolyl)-1,2-dihydropyridin-3-carboxamide]",,44,
"COc1ccc(-c2cnc(N)c(-c3ccc(NC(=O)c4cn(CC5CCOCC5)c(=O)n(-c5ccc(C)cc5)c4=O)cc3)c2)cc1OC [Compound 37, N-(4-(2-amino-5-(3,4-dimethoxyphenyl)pyridin-3-yl)phenyl)-2,4-dioxo-1-((tetrahydro-2H-pyran-4-yl)methyl)-3-(p-tolyl)-1,2,3,4-tetrahydropyrimidin-5-carboxamide]",,57,
